Results taken from paper PMC8379015, “Resistance of Mycobacterium tuberculosis to indole 4-carboxamides occurs through alterations in drug metabolism and tryptophan biosynthesis” (Cell Chemical Biology, 2021).
Converted amounts (≈) assume the structure as drawn. Where two headings read alike, the source gives them in different places.

What was measured:
[1] = system: M. tuberculosis H37Rv; assay: microbe, parasite or virus in culture; format: cell-based; conditions: Mycobacterium tuberculosis
[2] = system: Mtb; format: cell-based, Mycobacterium tuberculosis
[3] = molecular target: T1, TrpAB β reaction (Mycobacterium tuberculosis, UniProt P9WFX9+P9WFY1); assay: biochemical; format: biochemical
T1 construct: His6 (N); made in house; host or cells: E. coli BL21(DE3)

[4] = molecular target: T2, TrpAB α reaction (Mycobacterium tuberculosis, UniProt P9WFX9+P9WFY1); assay: biochemical
T2 construct: His6 (N); made in house; host or cells: E. coli BL21(DE3)

[5] = system: TrpE; design: method as in Negatu et al., 2019; conditions: ref Negatu et al., 2019; read-out: IC50 TrpE (allosteric inhibition); cited from earlier work
[6] = system: M. smegmatis mc2155; assay: microbe, parasite or virus in culture; format: cell-based, Mycobacterium smegmatis; conditions: for MIC: Mycolicibacterium smegmatis, MC2155, read-out: MIC vs M. smegmatis mc2155
[7] = system: M. bovis BCG; assay: microbe, parasite or virus in culture; format: cell-based, Mycobacterium bovis BCG
[8] = molecular target: T3, TrpAB WT (Mycobacterium tuberculosis, UniProt P9WFX9+P9WFY1); format: biochemical
T3 construct: His6 (N); made in house; host or cells: E. coli BL21(DE3)

[9] = system: intracellular Mtb H37Rv in J774 macrophages; format: cell-based, Mycobacterium tuberculosis
[10] = system: J774 macrophages; conditions: 24 hrs, CellTiter-Glo
[11] = molecular target: T4, TrpE WT (Mycobacterium tuberculosis, UniProt P9WFX3); format: biochemical
T4 construct: His6 (N); made in house; host or cells: E. coli BL21(DE3)
T4 sequence (P9WFX3 1-516): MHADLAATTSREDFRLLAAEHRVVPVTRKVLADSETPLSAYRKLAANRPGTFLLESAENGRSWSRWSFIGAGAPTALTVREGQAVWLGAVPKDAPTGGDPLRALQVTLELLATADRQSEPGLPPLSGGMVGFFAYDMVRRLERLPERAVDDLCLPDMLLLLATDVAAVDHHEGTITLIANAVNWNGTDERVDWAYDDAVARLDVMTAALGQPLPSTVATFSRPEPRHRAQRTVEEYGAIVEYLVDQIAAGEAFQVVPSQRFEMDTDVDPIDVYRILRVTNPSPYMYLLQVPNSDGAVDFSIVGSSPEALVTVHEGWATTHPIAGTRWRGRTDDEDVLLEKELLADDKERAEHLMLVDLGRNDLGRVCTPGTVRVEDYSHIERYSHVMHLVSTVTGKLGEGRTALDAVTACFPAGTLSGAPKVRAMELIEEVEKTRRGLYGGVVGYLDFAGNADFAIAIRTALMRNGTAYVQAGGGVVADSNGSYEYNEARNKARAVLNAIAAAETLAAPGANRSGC

T1 sequence (P9WFX9 whole entry): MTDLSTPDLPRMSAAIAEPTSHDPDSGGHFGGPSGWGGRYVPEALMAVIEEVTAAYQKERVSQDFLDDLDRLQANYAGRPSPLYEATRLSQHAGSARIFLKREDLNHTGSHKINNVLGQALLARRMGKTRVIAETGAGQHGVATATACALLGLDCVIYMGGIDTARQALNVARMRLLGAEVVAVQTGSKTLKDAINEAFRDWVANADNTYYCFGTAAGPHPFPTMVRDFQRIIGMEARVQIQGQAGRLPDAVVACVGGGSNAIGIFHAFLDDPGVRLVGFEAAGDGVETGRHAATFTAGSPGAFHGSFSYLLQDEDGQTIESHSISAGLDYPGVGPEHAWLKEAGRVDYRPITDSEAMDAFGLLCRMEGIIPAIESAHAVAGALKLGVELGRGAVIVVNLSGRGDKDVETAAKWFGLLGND
T1 sequence (P9WFY1 whole entry): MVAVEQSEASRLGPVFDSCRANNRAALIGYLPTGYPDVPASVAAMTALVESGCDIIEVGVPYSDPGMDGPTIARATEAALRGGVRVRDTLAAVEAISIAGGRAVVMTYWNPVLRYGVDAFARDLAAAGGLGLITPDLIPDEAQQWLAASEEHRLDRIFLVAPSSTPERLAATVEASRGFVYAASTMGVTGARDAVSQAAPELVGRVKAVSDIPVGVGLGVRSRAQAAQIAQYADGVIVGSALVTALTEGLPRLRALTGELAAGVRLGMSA
T3 sequence (P9WFX9 whole entry): as the sequence (P9WFX9 whole entry) above
T3 sequence (P9WFY1 whole entry): as the sequence (P9WFY1 whole entry) above
T2 sequence (P9WFX9 whole entry): as the sequence (P9WFX9 whole entry) above
T2 sequence (P9WFY1 whole entry): as the sequence (P9WFY1 whole entry) above

Compound | MIC [1] | MIC ([1]; read-out: MIC) | further results
Nc1cccc2[nH]ccc12 [4-AI, 4-aminoindole, reference compound] | 4.68 µM (≈ 0.619 µg/mL) |  | MIC ([1]; read-out: MIC against Mtb): 4.68 µM (≈ 0.619 µg/mL); increase of MIC on supplementation [2]: 4- to 16 fold; IC50 [3]: 649.4 ± 2.5 µM; IC50 [4]: 631 ± 174 µM
Nc1cccc2[nH]cc(C[C@H](N)C(=O)O)c12 [4-aTrp, 4-amino-L-tryptophan] |  |  | MIC ([1]; read-out: MIC against Mtb): > 100 µM
N[C@@H](Cc1c[nH]c2ccc(F)cc12)C(=O)O [5-fluorotryptophan] |  |  | IC50 [5]: 4 µM
O=C(O)c1ccc(OCC(F)(F)F)nc1 [C1-COOH, 6-(2,2,2-trifluoroethoxy)nicotinic acid] | 50 µM (≈ 11.1 µg/mL) |  | 
O=C(COc1ccccc1)Nc1cccc2[nH]ccc12 [C2, N-(1H-indol-4-yl)-2-phenoxyacetamide] |  |  | MIC [6]: > 100 µM
O=C(O)COc1ccccc1 [C2-COOH, 2-phenoxyacetic acid] | > 100 µM |  | 
O=C(Nc1cccc2[nH]ccc12)C1CCCCC1 [C3, N-(1H-indol-4-yl)cyclohexanecarboxamide] |  | 12.5 µM (≈ 3.03 µg/mL) | MIC vs M. bovis BCG [7]: 50 µM (≈ 12.1 µg/mL); MIC ([7]; Mycobacterium tuberculosis variant bovis BCG, BCG, read-out: MIC vs M. bovis BCG): > 100 µM; MIC [6]: > 100 µM
O=C(O)C1CCCCC1 [C3-COOH, cyclohexanecarboxylic acid] | > 100 µM |  | 
O=C(Nc1cccc2[nH]ccc12)c1ccc(OCC(F)(F)F)cn1 [C4, N-(1H-indol-4-yl)-5-(2,2,2-trifluoroethoxy)picolinamide] |  |  | MIC [6]: > 100 µM
O=C(O)c1ccc(OCC(F)(F)F)cn1 [C4-COOH, 5-(2,2,2-trifluoroethoxy)picolinic acid] | > 100 µM |  | 
CNS(=O)(=O)c1ccc2c(c1)CCN2C(=O)c1ccc(C)s1 [C5, reference compound] |  | 0.39 µM (≈ 0.131 µg/mL) | potency with exogenous indole or L-Trp [2]: significantly attenuated; IC50 [3]: 0.37 ± 0.07 µM; IC50 [4]: 0.1 ± 0.06 µM
O=C(Nc1ccc2[nH]ccc2c1)c1ccc(OCC(F)(F)F)nc1 [C6, N-(1H-indol-5-yl)-6-(2,2,2-trifluoroethoxy)nicotinamide] | 50 µM (≈ 16.8 µg/mL) |  | 
O=C(Nc1ccc2cc[nH]c2c1)c1ccc(OCC(F)(F)F)nc1 [C7, N-(1H-indol-6-yl)-6-(2,2,2-trifluoroethoxy)nicotinamide] | 50 µM (≈ 16.8 µg/mL) |  | 
O=C(Nc1cccc2cc[nH]c12)c1ccc(OCC(F)(F)F)nc1 [C8, N-(1H-indol-7-yl)-6-(2,2,2-trifluoroethoxy)nicotinamide] | 9.4 µM (≈ 3.15 µg/mL) |  | 
Cn1ccc2c(NC(=O)c3ccc(OCC(F)(F)F)nc3)cccc21 [C9, N-(1-methyl-1H-indol-4-yl)-6-(2,2,2-trifluoroethoxy)nicotinamide] | 50 µM (≈ 17.5 µg/mL) |  | 
FC(F)(F)COc1ccc(CNc2cccc3[nH]ccc23)cn1 [C10, N-((6-(2,2,2-trifluoroethoxy)pyridin-3-yl)methyl)-1H-indol-4-amine] | 50 µM (≈ 16.1 µg/mL) |  | 

Compound | MIC [1] | MIC ([1]; read-out: MIC) | further results
O=C(Nc1ccc(OCC(F)(F)F)nc1)c1cccc2[nH]ccc12 [C11, N-(6-(2,2,2-trifluoroethoxy)pyridine-3-yl)-1H-indole-4-carboxamide] | 50 µM (≈ 16.8 µg/mL) |  | 
O=C(Nc1cccc2c1CCN2)c1ccc(OCC(F)(F)F)nc1 [C12, N-(indolin-4-yl)-6-(2,2,2-trifluoroethoxy)nicotinamide] | 50 µM (≈ 16.9 µg/mL) |  | 
CN(C(=O)c1ccc(OCC(F)(F)F)nc1)c1cccc2[nH]ccc12 [C13, N-(1H-indol-4-yl)-N-methyl-6-(2,2,2-trifluoroethoxy)nicotinamide] |  | 25 µM (≈ 8.73 µg/mL) | 
O=C(Nc1cccc2[nH]cnc12)c1ccc(OCC(F)(F)F)cn1 [C14, N-(1H-benzo[d]imidazol-4-yl)-5-(2,2,2-trifluoroethoxy)picolinamide] |  | 50 µM (≈ 16.8 µg/mL) | 
O=C(Nc1ccnc2[nH]ccc12)c1ccc(OCC(F)(F)F)cn1 [C15, N-(1H-pyrrolo[2,3-b]pyridin-4-yl)-5-(2,2,2-trifluoroethoxy)picolinamide] |  | 50 µM (≈ 16.8 µg/mL) | 
O=C(Nc1cccc2[nH]ccc12)c1ccc(OCC(F)(F)F)nn1 [C16, N-(1H-indol-4-yl)-6-(2,2,2-trifluoroethoxy)pyridazine-3-carboxamide] |  | 2.3 µM (≈ 0.773 µg/mL) | 
Cc1ccc(OCC(=O)Nc2cccc3[nH]ccc23)cc1 [C17, N-(1H-indol-4-yl)-2-(p-tolyloxy)acetamide] |  | 1.56 µM (≈ 0.437 µg/mL) | 
O=C(COCC1CC1)Nc1cccc2[nH]ccc12 [C18, 2-(cyclopropylmethoxy)-N-(1H-indol-4-yl)acetamide] |  | 3.13 µM (≈ 0.765 µg/mL) | 
O=C(Nc1cccc2[nH]ccc12)[C@H]1C[C@@H](Oc2ccccc2)C1 [C19, (1s,3s)-N-(1H-indol-4-yl)-3-phenoxycyclobutane-1-carboxamide] |  | 3.13 µM (≈ 0.959 µg/mL) | 
CN(CC(F)(F)F)c1ccc(C(=O)Nc2cccc3[nH]ccc23)cn1 [C20, N-(1H-indol-4-yl)-6-(methyl(2,2,2-trifluoroethyl)amino)nicotinamide] |  | 4.7 µM (≈ 1.64 µg/mL) | 
Cc1ccc(C(=O)Nc2cccc3[nH]ccc23)o1 [C21, N-(1H-indol-4-yl)-5-methylfuran-2-carboxamide] |  | 6.25 µM (≈ 1.5 µg/mL) | 
O=P(O)(O)OC[C@@H](O)[C@H](O)c1c[nH]c2ccccc12 [IGP, indole-3-glycerol phosphate] |  |  | Km ([8]; read-out: apparent KM IGP): 76.9 ± 1.1 µM
NNC(=O)c1ccncc1 [INH, isoniazid, reference compound] |  | 0.16 µM (≈ 0.0219 µg/mL) | 
N[C@@H](CO)C(=O)O [L-Ser, L-serine] |  |  | Km ([3]; read-out: KM L-Ser of TrpAB β-half reaction): 2900 ± 300 µM; Km ([8]; read-out: apparent KM L-Ser): 550 ± 230 µM
N-(1H-indol-4-yl)-6-(2,2,2-trifluoroethoxy)nicotinamide [C1] |  |  | reduction in intracellular Mtb titer [9]: 1.5 log; toxicity to J774 macrophages [10]: not toxic; MIC vs M. smegmatis mc2155 [6]: > 100 µM; IC50 [11]: 242 ± 53 µM
